# Data from US8084457B2, “Pharmaceutically active 4,6-disubstituted aminopyrimidine derivatives as modulators of protein kinases” (Lead Discovery Center GmbH, priority 2003, dated 2011).
# Key:
# CDK9/Cyclin T1 = target: T1, CDK9/Cyclin T1 (Homo sapiens, UniProt P50750); experiment: Kinase assay using CDK9/Cyclin T1; assay type: biochemical; conditions: read-out: CDK9 (activity range)
# T1 construct: made in house; host or cells: HEK293 cells, recombinant adenovirus
# Excerpt: Cloning of CDK9 and Cyclin T1:
# Both cDNA fragments were cloned by PCR into pDONR201 vectors using the gateway recombination system (Invitrogen) according to the manufacturer's recommendations. The fragments were subcloned into a gateway-adapted shuttle vector (pPM7) for production of recombinant adenovirus. All plasmids were verified by restriction digests and sequencing analysis.
# Expression and Purification of CDK9/Cyclin T1 Proteins:
# Expression and purification was in principle performed as described by Cotten et al. (M. Cotten et al., Nucleic acids research, 2003, 31(28), 128).
# Kinase Assay Using CDK9/Cyclin T1:
# Kinase assays were performed in principle as described by Cotten et al. (M. Cotten et al., Nucleic acids research, 2003, 31(28), 128).
# CDK2/CyclinA = target: T2, CDK2/CyclinA (Homo sapiens, UniProt P24941); experiment: Kinase assay determining CDK2/CyclinA activity; assay type: biochemical; conditions: read-out: CDK2 (activity range)
# T2 construct: purchased Proqinase
# Experimental: Kinase Assays Determining CDK2/CyclinA and CDK5/p35 Activity:
# Kinase assays were performed as described by the manufacturers recommendations (Proqinase for CDK2/CyclinA and Upsate for CDK5/p35).
# T1 sequence (P50750 whole entry): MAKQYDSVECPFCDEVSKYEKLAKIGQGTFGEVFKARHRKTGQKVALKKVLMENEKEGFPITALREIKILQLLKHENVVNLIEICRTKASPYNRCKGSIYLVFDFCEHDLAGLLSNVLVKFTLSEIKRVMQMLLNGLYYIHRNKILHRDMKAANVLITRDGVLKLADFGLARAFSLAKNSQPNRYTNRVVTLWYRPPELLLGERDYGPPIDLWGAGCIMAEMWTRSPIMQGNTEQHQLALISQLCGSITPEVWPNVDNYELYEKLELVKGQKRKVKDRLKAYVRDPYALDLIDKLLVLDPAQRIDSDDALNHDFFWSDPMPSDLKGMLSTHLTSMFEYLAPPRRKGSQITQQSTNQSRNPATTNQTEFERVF
# T1 sequence (O60563 whole entry partner): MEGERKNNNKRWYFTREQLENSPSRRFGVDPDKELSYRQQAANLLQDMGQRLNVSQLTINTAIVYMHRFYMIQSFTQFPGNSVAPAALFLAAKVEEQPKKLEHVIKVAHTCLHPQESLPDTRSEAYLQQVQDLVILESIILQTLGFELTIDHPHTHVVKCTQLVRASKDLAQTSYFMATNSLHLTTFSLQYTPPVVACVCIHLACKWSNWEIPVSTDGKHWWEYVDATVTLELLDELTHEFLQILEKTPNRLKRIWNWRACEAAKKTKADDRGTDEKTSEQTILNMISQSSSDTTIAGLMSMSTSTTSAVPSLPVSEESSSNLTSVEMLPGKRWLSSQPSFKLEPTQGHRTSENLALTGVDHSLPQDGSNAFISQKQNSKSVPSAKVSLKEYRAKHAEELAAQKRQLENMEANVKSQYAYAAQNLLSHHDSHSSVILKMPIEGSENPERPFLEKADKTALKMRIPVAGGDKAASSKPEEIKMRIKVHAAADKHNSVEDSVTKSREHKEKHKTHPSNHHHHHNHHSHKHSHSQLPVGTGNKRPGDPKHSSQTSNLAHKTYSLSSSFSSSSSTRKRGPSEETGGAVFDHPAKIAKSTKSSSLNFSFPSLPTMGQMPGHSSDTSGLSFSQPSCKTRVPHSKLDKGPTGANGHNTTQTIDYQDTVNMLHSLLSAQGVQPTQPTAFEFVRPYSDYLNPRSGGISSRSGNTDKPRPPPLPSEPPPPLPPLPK
Structure (SMILES),IC50 (CDK9/Cyclin T1),IC50 (CDK2/CyclinA)
COc1ccccc1-c1cc(Nc2ccc(NC(=O)c3ccccc3N)cc2)ncn1 [(20)],1 to 1000 nM,1 to 10 µM
CCCS(=O)(=O)Nc1ccc(Nc2cc(-c3ccccc3OC)ncn2)cc1 [(154)],1 to 1000 nM,0.001 to 1 µM
COc1ccccc1-c1ncnc(Nc2ccc(N)cc2)c1C [(152)],10000 to 250000 nM,10 to 250 µM
COc1ccc(C(C)C)cc1-c1cc(Nc2ccc(NC(=O)c3ccc(N)cc3)cc2)ncn1 [(35)],10000 to 250000 nM,10 to 250 µM
COc1ccccc1-c1cc(Nc2ccc(NS(=O)(=O)c3ccccc3)cc2)ncn1 [(155)],1 to 1000 nM,0.001 to 1 µM
COc1ccccc1-c1cc(Nc2ccc(C(=O)Nc3ccccc3)cc2)ncn1 [(52)],1 to 1000 nM,10 to 250 µM
COc1ccccc1-c1cc(Nc2cccc(S(C)(=O)=O)c2)ncn1 [(185)],1 to 1000 nM,0.001 to 1 µM
COc1ccccc1-c1cc(Nc2ccc(NC(=O)c3c[nH]c4ccccc34)cc2)ncn1 [(133)],1 to 1000 nM,1 to 10 µM
O=C(Nc1ccc(Nc2cc(-c3ccccc3Cl)ncn2)cc1)[C@@H]1CCCCN1 [(192)],1 to 1000 nM,10 to 250 µM
Nc1cccc(-c2cc(NCCc3ccncc3)ncn2)c1 [(13)],1000 to 10000 nM,1 to 10 µM
COc1ccccc1-c1cc(Nc2ccc(NC(=O)c3ccc(C(C)(C)C)cc3)cc2)ncn1 [(45)],1000 to 10000 nM,10 to 250 µM
COc1ccccc1-c1cc(Nc2ccc(-c3nc4ccccc4o3)cc2)ncn1 [(62)],10000 to 250000 nM,10 to 250 µM
O=C(Nc1ccc(Nc2cc(-c3cccc(CO)c3)ncn2)cc1)[C@@H]1CCCCN1 [(193)],1000 to 10000 nM,
Nc1cccc(-c2cc(Nc3ccc(S(N)(=O)=O)cc3)ncn2)c1 [(117)],1000 to 10000 nM,0.001 to 1 µM
Cc1ccc(Nc2cc(-c3cccc(C#N)c3)ncn2)cc1NS(C)(=O)=O [(163)],1000 to 10000 nM,1 to 10 µM
COCc1cccc(-c2cc(Nc3ccc(NC(=O)[C@@H]4CCCCN4)cc3)ncn2)c1 [(203)],1000 to 10000 nM,
COc1ccccc1-c1cc(Nc2ccc(C(=O)NC(C)(C)C)cc2)ncn1 [(54)],1000 to 10000 nM,1 to 10 µM
COc1ccccc1-c1cc(NCCc2ccncc2)ncn1 [(93)],1000 to 10000 nM,10 to 250 µM
COc1ccccc1-c1cc(Nc2ccc(NC(=O)NC3CCCCC3)cc2)ncn1 [(38)],1 to 1000 nM,1 to 10 µM

Structure (SMILES),IC50 (CDK9/Cyclin T1),IC50 (CDK2/CyclinA)
COc1ccccc1-c1cc(N(C)c2ccc(N)cc2)ncn1 [(26)],1000 to 10000 nM,1 to 10 µM
CN1CCC(Nc2cc(Nc3ccc(NC(=O)C(C)(C)C)cc3)ncn2)CC1 [(74)],10000 to 250000 nM,10 to 250 µM
COc1ccccc1-c1cc(Nc2ccc(NC(=O)C3CCCCC3)cc2)ncn1 [(41)],1000 to 10000 nM,10 to 250 µM
COc1ccccc1-c1cc(Nc2ccc(NS(=O)(=O)c3ccc(-c4ccccc4)cc3)cc2)ncn1 [(34)],1000 to 10000 nM,1 to 10 µM
COc1ccc(OC)c(-c2cc(Nc3ccc(NC(=O)c4ccc(N)cc4)cc3)ncn2)c1 [(57)],10000 to 250000 nM,10 to 250 µM
Nc1ccc(C(=O)Nc2ccc(Nc3cc(-c4ccccc4O)ncn3)cc2)cc1 [(151)],10000 to 250000 nM,10 to 250 µM
NC1CCCCC1NC(=O)c1ccc(Nc2cc(-c3cnc4ccccc4c3)ncn2)cc1 (centres unmarked) [(212)],10000 to 250000 nM,
CCOc1ccccc1-c1cc(Nc2ccc(NC(=O)c3ccc(N)cc3)cc2)ncn1 [(55)],1 to 1000 nM,1 to 10 µM
COc1ccccc1-c1cc(Nc2ccc(NC(=O)c3ccncc3)cc2)ncn1 [(50)],1000 to 10000 nM,10 to 250 µM
COc1ccc(-c2cc(Nc3ccc(NS(=O)(=O)c4ccc(C)cc4)cc3)ncn2)cc1 [(1)],10000 to 250000 nM,1 to 10 µM
CC(C)(C)C(=O)Nc1ccc(Nc2cc(-c3ccccc3OCc3ccccc3)ncn2)cc1 [(85)],1 to 1000 nM,1 to 10 µM
CC(C)Oc1ccccc1-c1cc(Nc2ccc(NC(=O)c3ccc(N)cc3)cc2)ncn1 [(58)],1 to 1000 nM,0.001 to 1 µM
COc1ccccc1-c1cc(Nc2ccc(N)cc2C)ncn1 [(123)],1000 to 10000 nM,1 to 10 µM
COc1ccccc1-c1cc(Nc2ccc(C(=O)NC3CCCCC3N)cc2)ncn1 (centres unmarked) [(148)],1 to 1000 nM,1 to 10 µM
CC(C)(C)C(=O)Nc1ccc(Nc2cc(-c3cccc(C(=O)O)c3)ncn2)cc1 [(75)],10000 to 250000 nM,
Cc1ccc(Nc2cc(-c3ccccc3OC(C)C)ncn2)cc1NS(C)(=O)=O [(158)],1 to 1000 nM,0.001 to 1 µM
Nc1ccc(C(=O)Nc2ccc(Nc3cc(/C=C/c4ccccc4)ncn3)cc2)cc1 [(32)],10000 to 250000 nM,10 to 250 µM
COc1ncc(-c2cc(Nc3ccc(C(=O)N[C@@H]4CCCC[C@H]4N)cc3)ncn2)cn1 (racemic) [(213)],10000 to 250000 nM,
Cc1ccc(Nc2cc(-c3ccccc3OCc3ccccc3)ncn2)cc1NS(C)(=O)=O [(156)],1 to 1000 nM,0.001 to 1 µM
